Read-outs that look alike come from different tables or passages of the source.
Columns and labels:
[1] = system: RAW 264.7 macrophage cells; test: Nitric oxide production in macrophage cell stimulated by LPS (Griess); assay type: cell-based; settings: for inhibition of production of NO: LPS-stimulated macrophage cell; for NO production by LPS in macrophage cell: LPS 1 μg/ml
Protocol: RAW 264.7 macrophage cells were plated on 100 mm culture dishes at a density of 1-2×10^5 cells. Thereafter, the said macrophage cell was incubated in DMEM medium containing 10% fetal calf serum (heat-inactivated), 100 U/ml penicillin, and […] streptomycin in a CO2 incubator. The said macrophage cell was incubated therein confluently. The said incubated macrophage cells were transferred to serum-free DMEM medium, and further incubated therein for about 24 hours. Thereafter, macrophage cells were stimulated with LPS (1 μg/ml) for about 8 hours. (In this progress, experimental group was divided into two groups, group to which the compound was administered, and group to which the compound was not.) Then, nitrite quantification was achieved by performing calorimetric reaction for produced nitrite with Griess reagent and then measuring absorbance at 550 nm, while using NaNO2 as a standard.

left auricle muscle = test: Contractile force of left auricle muscle excised from rats; set-up: species or system rat; settings: for Contractile Force of Auricle Muscles: vehicle control:100%
Protocol: (§1) Immediately after Sprague-Dawley rats (female or male) were anaesthetized with pentobarbital sodium (50 mg/kg, i.m.), the thorax was opened to excise the heart. The heart was submerged in Krebs solution, and left auricle muscle and right auricle muscle were then isolated. The left auricle muscle was placed in an organ bath for recording of contractile force, and applied with electrical field stimulation (voltage 10% higher than threshold voltage, 1 Hz frequency, 5 ms duration). In the case of right auricle muscle, which contracts spontaneously, the number of continuous beats was recorded. In this experiment, to measure contractile fore of the two auricle muscles, the organ bath was warmed to 37° C., and as a physiological solution, Krebs solution (119.8 mM NaCl, 4.6 mM KCl, 2.5 mM CaCl2, 1.2 mM MgCl2, 25 mM NaHCO3, 1.2 mM KH2PO4, 10 mM glucose, 1 mM EDTA, pH 7.4) was used. The Krebs solution (pH 7.4) was continuously saturated with a gas mixture of 95% O2 and 5% CO2. The auricle muscle was under a tension of 1 g, and Krebs solution was exchanged with fresh solution at intervals of 20 minutes while equilibrium was maintained during a recording period of 60 minutes.

Rat Thoracic Aortas = test: Relaxation of rat thoracic aortas contracted by phenylephrine; settings: for IC50: Rattus norvegicus, Endothelial cell, 0.1 μM phenylephrine contraction; for relaxation of contracted blood vessels: concentration-dependant manner
Protocol: Experimental group was divided into two groups, group containing endothelial cells of blood vessel and group not containing. Blood vessel of thoracic aortas was induced to contract by treatment with 0.1 μM of phenyleprine under tension of 1 g. Upon arriving at equilibrium, the enantiomers were added to an organ bath in a cumulative manner. Relaxation of thoracic aortas was recorded using a physiograph (Grass P7), calculating their response to the compounds with consideration of their added amount.

right auricle muscle = test: Heart rates (beats) of right auricle muscle excised from rats; set-up: species or system rat; settings: for Heart Rates of Auricle Muscles: vehicle control:100%
Protocol: as §1

LPS-injected rat = test: Survival in LPS-injected rat; assay type: in vivo
Protocol: Rats (25˜30 g, ICR), originated from NIH cancer institute (Bethesda, Md., USA) were purchased from Korea Test Animal Corp. (Unsung, Korea). 20 mg/kg of LPS was injected to abdominal cavity of the rat. Thereafter, survival was observed every 24 hours for seven days, to investigate effect of enantiomer on the survival in LPS-injected rat. The compound represented by formula 3 to 8 was administered 30 min before the LPS injection.

rat PRP = test: Inhibition of platelet aggregation in rat PRP; assay type: cell-based; settings: for IC50: Platelet, rat PRP
Protocol: Male rat (weighing 200±20 g) was anaesthetized with ether. The blood (nine volumes) was collected from heart using a plastic syringe containing 2.2% sodium citrate (one volume). The collected blood was centrifuged at 200×g for 10 minutes to give supernatant platelet-rich plasma (PRP). The residue was centrifuged again at 700×g for 30 minutes, giving platelet-poor plasma (PPP) for experiment. We used a platelet analyzer to count the number of platelet of the PRP. PRP was diluted with physiological saline solution to prepare solution containing platelets in an amount of 400-450×10^6/ml. The inhibitory effects of the compound represented by formulas 3 to 8 was evaluated by platelet aggregation analyzer, and the inhibitory effect of each compound is given as % below. That is, after PRP was incubated for 3 minutes at 37° C., the compounds or a carrier was added thereto, and after 1 min, platelet aggregation-inducing agent such as ADP, collagen, arachidonic acid (AA), U46619 or epinephrine was added thereto, followed by investigation of turbidity caused by aggregation of platelets. % Inhibition=A−B/A×100 [arithmetic formula 1] • (A: Platelet aggregation rate in group treated with an aggregation-inducing agent; • B: Platelet aggregation rate in group treated with both an aggregation-inducing agent and the enantiomers simultaneously)

[2] = Acute toxicity in rat (LD50); assay type: in vivo; settings: Sprague-Dawley, in vivo
Protocol: Sprague-Dawley rats (six weeks) were used as test sample. Each group was comprised of two rats. […] The said emulsion was administered to two rats one times using intravenous injection and intraperitoneal injection.

[3] = group containing endothelial cells, read-out: IC50 (E+), concentration showing relaxation response of 50%
[4] = group not containing endothelial cells, read-out: IC50 (E−), concentration showing relaxation response of 50%
[5] = ADP 2 − 5 × 10^−6 M, read-out: IC50 platelet aggregation, ADP
[6] = U46619 1.5 × 10^−6 M with threshold collagen, read-out: IC50 platelet aggregation, U46619
[7] = arachidonic acid 1 − 4 × 10^−5 M with threshold collagen, read-out: IC50 platelet aggregation, AA
[8] = collagen 2 − 5 × 10^−6 g/ml, read-out: IC50 platelet aggregation, collagen
[9] = epinephrine 1 − 4 × 10^−6 M with threshold collagen, read-out: IC50 platelet aggregation, Epinephrine
[10] = ip, single intraperitoneal injection, read-out: LD50, Intraperitioneal injection
[11] = single intravenous injection, read-out: LD50, Intravenous injection

Compound | inhibition of production of NO [1] | NO production by LPS in macrophage cell ([1]; compound 10 μM) | NO production by LPS in macrophage cell ([1]; compound 50 μM) | NO production by LPS in macrophage cell ([1]; compound 100 μM) | effect on contractile force of auricle muscles (left auricle muscle) | Contractile Force of Auricle Muscles (left auricle muscle; 1 × 10^−4 M) | Contractile Force of Auricle Muscles (left auricle muscle; 1 × 10^−5 M) | Contractile Force of Auricle Muscles (left auricle muscle; 1 × 10^−6 M) | Contractile Force of Auricle Muscles (left auricle muscle; 1 × 10^−7 M) | Contractile Force of Auricle Muscles (left auricle muscle; 3 × 10^−5 M) | Contractile Force of Auricle Muscles (left auricle muscle; 3 × 10^−6 M) | Contractile Force of Auricle Muscles (left auricle muscle; 3 × 10^−7 M) | IC50 (Rat Thoracic Aortas; [3]) | IC50 (Rat Thoracic Aortas; [4]) | relaxation of contracted blood vessels (Rat Thoracic Aortas) | effect on heart rates of auricle muscles (right auricle muscle) | Heart Rates of Auricle Muscles (right auricle muscle; 1 × 10^−4 M) | Heart Rates of Auricle Muscles (right auricle muscle; 1 × 10^−5 M) | Heart Rates of Auricle Muscles (right auricle muscle; 1 × 10^−6 M) | Heart Rates of Auricle Muscles (right auricle muscle; 1 × 10^−7 M) | other results
Oc1cc2c(cc1O)[C@H](Cc1ccc3ccccc3c1)NCC2 [Formula 7, (S)-6,7-Dihydroxy-1-(β-naphthylmethyl)-1,2,3,4-tetrahydroisoquinoline] | strongly inhibited production of NO | 31.2 µM | 15.2 µM | 9.4 µM | strongly increased | 380% | 350% | 250% | 120% | 380% | 315% | 170% | 0.757 µM | 3.14 µM | induced relaxation | strongly stimulated | 180% | 175% | 165% | 150% | Heart Rates of Auricle Muscles (right auricle muscle; 3 × 10^−5 M): 180%; Heart Rates of Auricle Muscles (right auricle muscle; 3 × 10^−6 M): 170%; Heart Rates of Auricle Muscles (right auricle muscle; 3 × 10^−7 M): 160%; survival after six days (LPS-injected rat; 15 mg/kg compound 30 min before LPS 20 mg/kg i.p.): 73%; decrease of survival at 30 mg/kg versus 15 mg/kg (LPS-injected rat; LPS 20 mg/kg): 7%; IC50 (rat PRP; [5]): 460 µM; IC50 (rat PRP; [6]): 61 µM; IC50 (rat PRP; [7]): 62 µM; IC50 (rat PRP; [8]): 150 µM; IC50 (rat PRP; [9]): 0.9 µM; inhibitory effect on epinephrine-induced platelet aggregation, times as strong as R-enantiomer (rat PRP; epinephrine, S versus R): about seventeen times as strong; inhibitory effect on epinephrine-induced platelet aggregation, times as strong as racemic mixture (rat PRP; epinephrine, S versus racemic mixture): about five times as strong; LD50 [2, 10]: 376 mg/kg; LD50 [2, 11]: 184 mg/kg
Oc1cc2c(cc1O)[C@@H](Cc1ccc3ccccc3c1)NCC2 [Formula 8, (R)-6,7-Dihydroxy-1-(β-naphthylmethyl)-1,2,3,4-tetrahydroisoquinoline] | never or slightly inhibited production of NO | 46 µM | 42 µM | 40 µM | no effect | 105% | 100% | 100% | 100% | 105% | 100% | 100% | 1.95 µM | 7.54 µM | induced relaxation | no effect | 105% | 105% | 100% | 100% | Heart Rates of Auricle Muscles (right auricle muscle; 3 × 10^−5 M): 105%; Heart Rates of Auricle Muscles (right auricle muscle; 3 × 10^−6 M): 100%; Heart Rates of Auricle Muscles (right auricle muscle; 3 × 10^−7 M): 100%; survival after six days (LPS-injected rat; 30 mg/kg compound 30 min before LPS 20 mg/kg i.p.): 72%; IC50 (rat PRP; [5]): 540 µM; IC50 (rat PRP; [6]): 49 µM; IC50 (rat PRP; [7]): 7.9 µM; IC50 (rat PRP; [8]): 150 µM; IC50 (rat PRP; [9]): 15 µM; LD50 [2, 10]: 214 mg/kg; LD50 [2, 11]: 80 mg/kg

— patent US20060058346A1, “Novel enantiomers of etrahydroisoquinoline derivatives and theirpharmaceutically acceptable salts, their preparations and pharmaceutical compositions” (priority 2002, published 2006)
